Assay results from patent US20090220534A1, “METHODS FOR IDENTIFYING T-CELL EPITOPES ASSOCIATED WITH IMPAIRED PEPTIDE PROCESSING AND APPLICATIONS OF THE IDENTIFIED EPITOPES” (Leiden University Medical Center, priority 2006, published 2009).

Experiments:
[1] = system: MC38 colon carcinoma cells and B16 melanoma cells; test: TAP1 antisense oligonucleotide treatment of tumor cells, recognition by TEIPP-specific CTL (IFNγ release); format: cell-based, mouse
Experimental: (§1) (a) TEIPP-specific CTL were incubated with a panel of TAP-expressing syngeneic tumor cells (see Materials and Methods for descriptions of tumor cell lines). CTL response against TAP-deficient RMA-S in this experiment was 44 ng/ml. (b) Pre-treatment of TAP-expressing T-cell lymphoma (RMA) and B-cell lymphoma (786) cells with IFNγ reduced the reactivity of TEIPP-specific CTL, as measured after 6 h. […] Panels depict means of triplicate wells and one of three experiments is shown. (c-e) TAP-expressing RMA tumor cells were treated with the proteasome inhibitor lactacystin and used as targets for cytolysis by two independent TEIPP-specific CTL (c and d) or control RMA-specific CTL (e). […] One representative experiment of three is shown. […] (f-g) TAP-expressing colon carcinoma MC38 (f) and melanoma B16 (g) were loaded with oligo DNA coding a partial antisense sequence of TAP1. Recognition by TEIPP-specific CTL was measured by IFNγ release. […]
(§2) In order to make an inventory of the deficiencies that can result in TEIPP expression, we assessed the effect of several targeted interventions in the MHC class I processing pathway. […]
(§3) Cytolytic activity of CTL was measured by chromium (^51Cr) release assay, as described before (16). CTL reactivity was also measured by IFNγ release. […] IFNγ content of supernatants was measured by sandwich ELISA technique (at OD 415) as described (47). […]

[2] = system: TAP-expressing RMA tumor cells; test: Proteasome inhibitor treatment of target cells, cytolysis by CTL (chromium release); format: cell-based, mouse; settings: RMA cells treated with proteasome inhibitor
Experimental: as §1, §2, §3

[3] = system: TAP-deficient RMA-S lymphoma cells; test: Peptide immunization and challenge with RMA-S tumor cells; format: in vivo; settings: with T helper peptide and CpG oligonucleotides, B6 mice
Description: Groups of B6 mice (n=10) were immunized with synthetic peptides comprising TEIPP Db peptide MCLRMTAVM or control Db peptide SSPVNSLRNVV51 combined with T helper peptide EPLTSLTPRCNTAWNRLKL29 and CpG oligonucleotides 28 and challenged with TAP-deficient RMA-S lymphoma cells. Mice were challenged at day 0 and immunized at days −14, 7 and 14. Immunization with irradiated RMA-S.B7 cells served as positive control.
We therefore immunized groups of mice with the newly identified Db-restricted TEIPP CTL epitope, or a control CTL epitope, in combination with a previously identified tumor-specific CD4+ T-helper epitope (29), and challenged the mice with a tumorigenic dose of RMA-S cells.
B6 mice were immunized with synthetic peptides by s.c. injections of 100 μg of peptide, 50 μg T-helper peptide EPLTSLTPRCNTAWNRLKL 29 and 40 μg Toll-Like Receptor 9 ligand CpG oligonucleotides 28 per mouse in a total volume of 200 μl PBS. Mice were challenged s.c. at the opposite flank with 8×10^5 RMA-S cells in PBS.

[4] = system: Db-restricted TEIPP CTL; test: Peptide recognition by Db-restricted TEIPP CTL (IFNγ release); format: cell-based, mouse; settings: synthetic peptide in titrating amounts
Description: Kb-restricted (a) and Db-restricted TEIPP-CTL (b) respond to human TAP-deficient T2 cells with stable expression of Kb or Db when exogenously loaded with synthetic peptide libraries. Libraries contained peptides with Kb- or Db-binding motifs, Kb lib: xxxxFxxI/L/M (complexity of approximately 108) and Db lib: xxxxNxxxI/L/M (complexity of approximately 109), where x is random for all amino acids. (c-d) Db molecules from RMA-S cells (1011) were immunoaffinity purified and acid eluted peptides were separated by reversed phase HPLC, applying an increasing acetonitril gradient (OD214 left axis, % acetonitril right axis) (c). HPLC fractions were loaded unto T2.Db cells and TEIPP-specific, Db-restricted CTL were applied to detect the eluted peptide-epitope (d). […] Of note, CTL recognition of HPLC fractions depended on the presence of the relevant class I molecule on target cells (not shown). (e) MCLRMTAVM peptide is processed and presented from the Trh4 gene. The Trh4 gene was cloned from RMA-S cells using gene-specific primers. Trh4 gene in the reversed orientation (Trh4r) served as control plasmid. […]
as §3

[5] = system: RMA, 786 and RMA-S tumor cells; test: IFNγ pre-treatment of tumor cells, recognition by CTL; format: cell-based, mouse
Experimental: (a) TEIPP-specific CTL were incubated with a panel of TAP-expressing syngeneic tumor cells (see Materials and Methods for descriptions of tumor cell lines). CTL response against TAP-deficient RMA-S in this experiment was 44 ng/ml. (b) Pre-treatment of TAP-expressing T-cell lymphoma (RMA) and B-cell lymphoma (786) cells with IFNγ reduced the reactivity of TEIPP-specific CTL, as measured after 6 h. […] Panels depict means of triplicate wells and one of three experiments is shown. (c-e) TAP-expressing RMA tumor cells were treated with the proteasome inhibitor lactacystin and used as targets for cytolysis by two independent TEIPP-specific CTL (c and d) or control RMA-specific CTL (e). […] One representative experiment of three is shown. […] (f-g) TAP-expressing colon carcinoma MC38 (f) and melanoma B16 (g) were loaded with oligo DNA coding a partial antisense sequence of TAP1. Recognition by TEIPP-specific CTL was measured by IFNγ release. […] (h) Tapasin−/− LPS B cell blasts are recognized by TEIPP-specific CTL in a CD8-dependent manner. Spleens of TAP1−/−, Tapasin−/− or wild type B6 mice were cultured with LPS and used as targets for TEIPP-specific CTL.
Thus far, only cells of hematopoietic origin had been tested against TEIPP-specific CTL. […] Likewise, TEIPP-specific CTL recognized immortalized mouse embryo fibroblasts from TAP1−/− origin (FIG. 2c). […] For instance, RMA, the TAP-expressing counterpart of RMA-S against which these T cells were raised, was also recognized by TEIPP-directed CTL, albeit to lower extent (FIG. 3a). Furthermore, the TEIPP-specific CTL recognized two independent TAP-expressing murine leukemia virus-induced B cell lymphomas (FIG. 3a, lines 771 and 786) and, of the tumor targets of non-hematopoietic origin, HPV type 16-transformed fibroblasts (FIG. 3a, line TC1). All these tumor cells expressed TAP, as illustrated by the fact that they serve as proper targets for control CTL that react against defined, TAP-dependent epitopes 15, 16. We therefore considered the possibility that partial deficiencies in MHC class I antigen processing may account for the recognition of several TAP-expressing murine tumor cells by TEIPP-specific CTL. Such partial defects are commonly found in human cancers 5. We examined this idea by treatment of RMA cells with IFNγ, which is known to enhance MHC class I antigen processing at multiple levels, including the transcription of TAP 17. […] In contrast, recognition by RMA-specific control CTL was increased (data not shown).
as §3

Compound: TAP1-specific anti-sense oligonucleotides: 'morpholino' oligonucleotides encoding the antisense sequence of mouse TAP1 (5′-AGAGTCTGGTCCTAGCCTGGGA-3′) (all phosphorodiamidate morpholino (PMO))
- recognition of treated cells by TEIPP-specific CTL [1]: increased recognition by TEIPP-specific CTL

Compound: CC(=O)N[C@@H](CSC(=O)[C@]1([C@@H](O)C(C)C)NC(=O)[C@H](C)[C@@H]1O)C(=O)O [lactacystin]
- recognition of treated RMA cells by control CTL [2]: decreased
- sensitivity of treated RMA cells to lysis by TEIPP-specific CTL [2]: increased their sensitivity to lysis by these CTL

Compound: MCLRMTAVM
- tumor protection after immunization [3]: tumor protection in the majority of mice
- recognition by Db-restricted TEIPP CTL [4]: efficiently recognized by the Db-restricted TEIPP CTL, at much lower concentration than the mimotope peptide

Compound: IFNγ: interferon gamma used to pre-treat tumor cells
- recognition of pretreated cells by TEIPP-specific CTL ([5]; RMA cells): reduced recognition of these cells by TEIPP-specific CTL
- recognition of pretreated cells by RMA-specific control CTL ([5]; RMA cells, data not shown): increased
- MHC class I surface expression ([5]; RMA cells, not shown): increased three-fold
- recognition of pretreated cells by CTL ([5]; RMA-S cells, data not shown): did not result in an increased recognition

Compound: control peptide: control Db peptide SSPVNSLRNVV used for immunization
- tumor protection after immunization [3]: developed progressively growing tumors
